These results are taken from ChEMBL document CHEMBL3988442, “University of Dundee, Small-Polar-MMV Screening Library” (2021).

Assay [1] has as its system Plasmodium falciparum. The assay can be described thus: Plasmodium falciparum sporozoite viability assay. Format: functional, organism-based. The following applies: for IC50: Plasmodium falciparum.
Assay [2] addresses Sialic acid-binding Ig-like lectin 9 (Homo sapiens, UniProt Q9Y336). In words: Hs-Siglec9 ALPHAscreen SOP 20170721. (In general: Alpha assays give light when donor and acceptor beads are brought close together.)
Assay [3] is described as follows: microbe, parasite or virus in culture. The settings on record: Mycobacterium tuberculosis, 96 h, read-out: pIC50 (converted).
The nature of assay [4]: In vitro enzyme assay to detect hydrolysis of chlorophenol red-beta-D-[…] directly proportional to the number of Toxoplasma stably expressing beta-galactosidase. The format is functional, organism-based, Toxoplasma gondii. The following applies: for IC50: Toxoplasma gondii.
In assay [5] the target is ClpP1P2 (Mycobacterium tuberculosis (strain ATCC 25618 / H37Rv), UniProt P9WPC3+P9WPC5). The assay can be described thus: in vitro assay to detect presence of AMC directly proportional to the activity of ClpP1P2. GHDDI collaboration. The format is functional.
A short description of assay [6]: microbe, parasite or virus in culture. The settings on record: Mycobacterium tuberculosis, 72 h, read-out: pIC50 (converted).
The test system of assay [7] is Plasmodium falciparum. In words: Calibr Malaria Delayed Death Assay SOP. Format: functional, organism-based. The following applies: for IC50: Plasmodium falciparum.
Assay [8] deals with Polyketide synthase Pks13 (Mycobacterium tuberculosis (strain ATCC 25618 / H37Rv), UniProt I6X8D2). In words: Mycobacterium tuberculosis Polyketide synthase 13 Thioesterase (PKS13). Format: functional.
In assay [9] the target is T1, Coenzyme A biosynthesis bifunctional protein CoaBC (Mycobacterium tuberculosis (strain ATCC 25618 / H37Rv), UniProt P9WNZ1).
T1 sequence (P9WNZ1 whole entry): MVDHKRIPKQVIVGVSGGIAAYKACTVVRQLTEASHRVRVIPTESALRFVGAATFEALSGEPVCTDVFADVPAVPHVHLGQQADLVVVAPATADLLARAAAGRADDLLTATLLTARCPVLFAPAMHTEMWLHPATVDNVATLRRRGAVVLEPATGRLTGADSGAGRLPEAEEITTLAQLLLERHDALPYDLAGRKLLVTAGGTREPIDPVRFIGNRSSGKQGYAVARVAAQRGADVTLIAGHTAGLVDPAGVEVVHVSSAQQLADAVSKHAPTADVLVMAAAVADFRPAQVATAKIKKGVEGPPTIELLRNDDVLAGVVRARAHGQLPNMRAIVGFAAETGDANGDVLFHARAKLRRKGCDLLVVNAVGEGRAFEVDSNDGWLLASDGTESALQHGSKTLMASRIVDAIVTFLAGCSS
In words: Biomol Green assay for MtCoaBC inhibitor, OD650 read. The format is functional.

In assay [10] the target is Lysine--tRNA ligase (Plasmodium falciparum (isolate 3D7), UniProt Q8IDJ8). In words: Pf-KRS-1 (Lysyl-RNA Synthetase-1, KRS-1, cytosolic KRS) from Plasmodium falciparum. Inhibitor assay, 384 well plate, luminescence read. The format is functional.

SMILES strings stand for the structures. Values joined by “and” are separate entries in the source; they are usually repeats but may differ in a detail not shown here. Identical values can stand only once. Some results are limits rather than exact numbers.

The pIC50 is the IC50 on a negative log10 scale, so that one unit is a factor of ten. Regarding `CC(C)(C)c1ncc(C(=O)NCCSc2ccccn2)c(O)n1`, in [1], the pIC50 is recorded as 7.35 and the IC50 is 0.0632 µM.
Regarding `Cc1csc(NC(=O)c2cnc(C3CCCN(C)C3)cn2)n1` (stereo not given), the pIC50 in assay [1] is 5.674 and 6.096.
`COc1cccc(-c2noc(C3CCN(CC(N)=O)C3)n2)c1` (stereo not given) had an IC50 in [1] of over 10.5 µM.
In the case of `CN1CCN(C2CCN(c3cnc4ccccc4n3)CC2)C1=O`, in [1], the pIC50 is 7.03 and 7.343.
In assay [1], `CNc1cc(C)nc(N2C[C@@H](C(=O)O)[C@H](C3CC3)C2)n1` showed a pIC50 of 5.907 and an IC50 of 0.989 µM.
The matching figures for `Cc1cccc(Nc2cc(C3CCCN(CC(N)=O)C3)ccn2)n1.O=CO.O=CO` (stereo not given): 6.742 and 0.186 µM.
The matching figures for `CC(C)(C)n1ncc2c1CCCC2NCc1ccc2c(c1)OCCO2` (stereo not given): 6.564 and 0.411 µM.
With `Cn1ncc2c1C(COCC1CC1)CN(Cc1ccsc1)C2` (stereo not given), the IC50 is over 30.2 µM in assay [2] and over 50.1 µM in assay [3].
In [1], `CC(C)(C)n1ncc2c(=O)n(CC(=O)NCc3ccccc3)cnc21` showed a pIC50 of 7.194 and an IC50 of 0.043 µM.
For the molecule `COc1c(C(=O)NCc2cnn(C)c2C)nnn1Cc1ccccc1`, the IC50 is over 30.2 µM in [2] and over 50.1 µM in assay [4].
`CSc1ccccc1C(=O)Nc1ccc(OC2CCN(C)CC2)cc1`: the negative logarithm of the IC50 (pIC50) in [1] is 6.337 and 5.999.
On to `CSc1cc2c(cc1NC(=O)NCC1CCOC1)OCCO2` (stereo not given), for which, in [1], the pIC50 amounted to 6.419 and the IC50 was 0.218 µM.
In assay [1], `Cn1cnnc1C1CCN(C(=O)CCCOc2ccccc2F)CC1` had a pIC50 of 6.053 and an IC50 of 1.3 µM.
Turning to `Cc1ccnc(NC(=O)c2ccc(Cl)o2)c1`, in [1], the negative-log IC50 (pIC50) was 7.621 and 7.995.
As for `COc1c(C(=O)NCc2cccnc2)nnn1Cc1ccccc1`, the results for the IC50 in [2] and in assay [4] were over 30.2 µM and over 50.1 µM, respectively.
As to `c1cc(OCc2ccc3c(c2)OCO3)ccc1CNC1CC1`, in assay [1], the IC50 was over 10.5 µM.
For the molecule `CC(=O)Nc1nc(C(=O)N2CCCC(n3cncn3)C2)cs1` (stereo not given), in assay [1], the negative-log IC50 (pIC50) was determined as 5.727 and the IC50 was 3.37 µM.
The matching figures for `Cc1c(F)cc(C(=O)O)cc1S(=O)(=O)Nc1ccc2c(c1)OCCO2`: 5.599 and 3.79 µM.
Taken in the same sequence, the figures for `CN1CCCC1CCn1ccnc1-c1nc(-c2ccccc2)no1` (stereo not given) were 6.882 and 0.0716 µM.
As for `CCn1cc(NC(=O)Nc2ccc3c(c2)OCCO3)cn1`, the negative-log IC50 (pIC50) in [1] was 7.305 and 6.856.
Still for that read-out and setting: the value for `COC(=O)CCCNC(=O)N1CCc2c([nH]c3ccc(Cl)cc23)C1` was 5.609 and 6.035.
Still for that read-out and setting: the value for `CCc1noc(CN(Cc2ccc3c(c2)OCO3)C2CCCC2)n1` was 5.474 and 5.085.
In [1], `O=C(Nc1cccc(Cl)c1)c1nn(C2CCS(=O)(=O)C2)c2c1CCCC2` (stereo not given) had a pIC50 of 5.123 and an IC50 of 8.15 µM.
The matching figures for `CC(=O)N1Cc2ccccc2CC1C(=O)Nc1cc(C)ccn1` (stereo not given): 7.317 and 0.0412 µM.
`CSc1ccc(-c2nc(CN3CCC(NC(C)=O)C3)c(C)o2)cc1` (stereo not given): in assay [1], the pIC50 is listed as 6.077 and the IC50 was 0.533 µM.
Take `c1ccc(-c2nc(CN3CCc4c(ncn4C4CC4)C3)cs2)cc1`: in assay [1], the negative logarithm of the IC50 (pIC50) was 5.414 and the IC50 was 2.99 µM.
Taken in the same sequence, the figures for `Cc1cccc(C(=O)Nc2ccc(OC3CCN(C)CC3)cc2)c1` were 7.031 and 0.119 µM.
Taken in the same sequence, the figures for `CCN1CCN(Cc2coc(-c3cccc(F)c3)n2)CC1` were 6.19 and 0.8 µM.
`O=C(NCCc1nncn1C1CC1)c1cc2ccccn2c1`: the figures for the IC50 in assay [2] and in assay [5] were over 30.2 µM and over 100 µM, respectively.
In assay [1], `OCC1CCCN1c1cc(NCCc2ccccn2)ncn1` (stereo not given) showed a negative logarithm of the IC50 (pIC50) of 7.276 and an IC50 of 0.0517 µM.
Taken in the same sequence, the figures for `Cc1ccc(Nc2nccc(C3CCCN(CC(=O)N(C)C)C3)n2)nc1` (stereo not given) were 5.724 and 2.68 µM.
With `O=C1Nc2ccccc2CN(CC2CCCC2)C12CCNC2` (stereo not given), the IC50 in [6] is 22.7 µM; in assay [2], over 30.2 µM; in [3], over 50.1 µM.
On to `NC(=O)c1ccc(NC(=O)Cn2cc(I)cn2)cc1`, for which, in assay [1], the pIC50 worked out at 5.308 and the IC50 was 3.07 µM.
Consider `COc1cc(C)sc1C(=O)N1CCC(Nc2cccnc2)CC1`, for which the IC50 in assay [6] was over 50.1 µM; in assay [2], over 30.2 µM; in [3], over 50.1 µM.
With `CN1CC2(CCN(Cc3ccoc3)CC2)COc2ccccc2S1(=O)=O.O=C(O)C(F)(F)F`, in assay [7], the pIC50 is given as 5.92. The IC50 was 0.906 µM in [7] and over 30.2 µM in [2].
Take `O=C1Nc2ccccc2CN(C/C=C/c2ccccc2)C12CCNC2` (stereo not given): the IC50 in assay [2] is over 30.2 µM; in assay [4], 15 µM. In [4], this molecule gave a pIC50 of 4.701.
As for `Cc1cc(C(=O)NCc2cc(C)oc2C)no1`, the results for the IC50 in assay [2] and in assay [8] were over 30.2 µM and over 100 µM, respectively.
Take `Cc1cc(C(=O)N2CCCC(c3cc(=O)nc4n3CCC4)C2)on1` (stereo not given): the IC50 in assay [2] and in assay [9] was over 30.2 µM each time.
Consider `COCC1CN(Cc2ccsc2)Cc2cnn(C)c21` (stereo not given), for which the IC50 in assay [2] and in [9] was over 30.2 µM throughout.
Regarding `CCOCCCNC(=O)c1nnn(Cc2ccccc2)c1OC`, the IC50 in assay [2] was over 30.2 µM; in assay [4] it was over 50.1 µM.
Taken in the same sequence, the figures for `COc1c(C(=O)NCC2CCCO2)nnn1Cc1ccccc1` (stereo not given) were over 30.2 µM and over 50.1 µM.
For `c1cnc(N2CCC3(CCN(CC4CCOC4)CC3)CC2)nc1` (stereo not given), the IC50 was over 50.1 µM in assay [10] and over 30.2 µM in assay [2].
In assay [7], `COc1ccc(C(C)NCc2ccsc2)cc1Cn1cccn1` (stereo not given) showed a pIC50 of 6.257 and an IC50 of 0.477 µM. This molecule had an IC50 in assay [2] of over 30.2 µM.
With `CCn1nc(C)c(NC(=O)c2nnn(Cc3ccccc3)c2OC)c1C`, the IC50 is over 30.2 µM in assay [2] and over 50.1 µM in assay [4].
Regarding `FC(F)(F)c1cc(C2CCCN(c3cnccn3)C2)n2ccnc2n1` (stereo not given), the values for the IC50 in assay [2] and in assay [5] were over 30.2 µM and over 100 µM, respectively.
Taken in the same sequence, the figures for `FC(F)(F)c1cc(C2CCN(c3cnccn3)CC2)n2ccnc2n1` were over 30.2 µM and over 100 µM.
With `COc1c(C(=O)NCC(C)C)nnn1Cc1ccccc1`, the IC50 is over 30.2 µM in assay [2] and over 50.1 µM in [4].
For the molecule `CC(C)N1CCCC(c2cc(C(F)(F)F)nc3nccn23)C1` (stereo not given), the IC50 in assay [2] was over 30.2 µM; in [5], over 100 µM.
Consider `Cc1nc(CC(=O)NCc2csc(N3CCCC3)n2)cs1`, for which, in assay [2], the IC50 is over 30.2 µM.
For `CC(C)NC(=O)N1CCC2(CC1)COc1ccccc1S(=O)(=O)N(C)C2`, the IC50 in assay [2] is over 30.2 µM.
On the same count and under the same terms, the value for `O=C(NCCc1nncn1C1CC1)C1SCCc2ccccc21` (stereo not given) was over 30.2 µM.
On the same count and under the same terms, then `CN(C)C(=O)COC[C@]12COC[C@H]1CN(Cc1ccoc1)C2`, with over 30.2 µM; and `CCOC(=O)CNC(=O)c1cccnc1Oc1ccc(Cl)cc1`, with over 30.2 µM; and `Cc1occc1C(=O)N1CCO[C@H]2[C@@H](Oc3ccccn3)CC[C@@H]21`, with over 30.2 µM.
The same measure, in the same setting: the value for `CC(=O)N1Cc2ccnn2CC(C(=O)NCc2cccnc2)C1` (stereo not given) was over 30.2 µM; that for `CCc1cc(N2CCN3CCCCC3C2)n2nccc2n1` (stereo not given) was over 30.2 µM; that for `CN1CC2(CCN(C(=O)C3CCC3)CC2)COc2ccccc2S1(=O)=O` was over 30.2 µM.
Molecule `O=C(c1cscn1)N1CCO[C@H]2[C@@H](Oc3ccccn3)CC[C@@H]21` gave an IC50 in assay [2] of over 30.2 µM.
Same read-out and setting: then `CNC(=O)C1CCN(c2nc3nc[nH]c(=O)c3s2)CC1`, with over 30.2 µM; and `O=C(NCCc1nncn1C1CC1)C1SCCc2sccc21` (stereo not given), with over 30.2 µM.
Same read-out and setting: then `COc1ccc(OC)c(C(=O)N2CCC(Nc3cccnc3)CC2)c1`, with over 30.2 µM.
The same measure, in the same setting: then `CCc1nc(C2CCCN(c3ncc(Br)cn3)C2)no1` (stereo not given), with over 30.2 µM; and `Cc1cncc(C(=O)N2CCO[C@H]3[C@H](Oc4ccccn4)CC[C@@H]32)c1`, with over 30.2 µM.
The molecule `CCOc1cccc(C2CC(=O)NCc3nc(N4CCCC4)sc32)c1` (stereo not given) had an IC50 in assay [2] of over 30.2 µM.
Regarding `Cc1occc1C(=O)N1CCO[C@H]2[C@H](Oc3cccnc3)CC[C@@H]21`, the IC50 in assay [2] was over 30.2 µM.
Same read-out and setting: then `CC(C)n1cnnc1C1CCCN(S(=O)(=O)CCCF)C1` (stereo not given), with over 30.2 µM; and `COC(=O)C(O)C1CCN(CCc2ccncc2)CC1` (stereo not given), with over 30.2 µM; and `CC(C)NC(=O)c1csc(NC2CC2)n1`, with over 30.2 µM.
Still for that read-out and setting: the value for `Nc1nccc(N2C[C@@H](CN3CCCCC3)[C@@H](CO)C2)n1` was over 30.2 µM.
Same read-out and setting: then `CCn1c(C)cc(C(=O)N2CCC(Nc3cccnn3)CC2)c1C`, with over 30.2 µM; and `CCOC(=O)[C@H]1[C@@H](O)C(=O)N(C)C12CCN(C(=O)CC(C)C)CC2`, with over 30.2 µM.
